From paper PMC9785606, “Design and Synthesis of Novel Phenylahistin Derivatives Based on Co-Crystal Structures as Potent Microtubule Inhibitors for Anti-Cancer Therapy” (Marine Drugs, 2022)

Assays:
[1] = test system: pancreatic cancer BxPC-3 cell line; experiment: MTT cytotoxicity assay, pancreatic cancer BxPC-3 cell line; type: cell-based; conditions: Homo sapiens, 72 h, mean ± SD
Experimental: (§1) Human cancer cell lines (lung cancer NCI-H460 cell line, pancreatic cancer BxPC-3 cell line, colon cancer HT-29 cell line) were purchased from American Type Cell Culture Collection (ATCC, Manassas, VA, USA). Cells were maintained in RPMI-1640 medium supplemented with 10% (v/v) heat-inactivated fetal bovine serum, penicillin-streptomycin (100 U/mL-100 […]) at 37 °C in a humidified atmosphere (5% CO2–95% air). All tested derivatives were dissolved in 100% cell culture grade DMSO. Cells (3 × 10^3 per well) were seeded in 96-well plates for 24 h. Then, cells were treated with the tested compounds in six concentrations for 72 h. Cell viability was assessed by MTT assay. The absorbance at 490 nm was measured with a Microplate Reader (Molecular Devices, Silicon Valley, CA, USA). The data were analyzed by Origin 8.5 (OriginLab, Northampton, MA, USA).

[2] = Stability of liver microsomal metabolism; type: in vitro ADME, rat; conditions: 37 °C
Experimental: The total volume of the incubation system is 1 mL, which contains 1 mmol/L NADPH, 0.5 mg/mL rat liver microsomes, 1 μmol/L 15p standard solution, which was supplemented with K2HPO4 buffer to 1 mL. The solution should be added to the incubation system. The incubation system was rapidly incubated in a water bath shaker at 37 °C for 5 min before adding 200 μL of 5 mmol/L NADPH. The 50 μL of the incubation system was quickly removed at 0, 5, 10, 20, 40, 60, 90, 120, 150, 210, and 270 min. The concentrations of the samples to be measured (15p) in rat liver microsomes were measured by HPLC-MS/MS. Each sample was operated on three times in parallel. The experimental data were processed and plotted using the computer programs Microsoft Excel (97–2003) and Origin 7.5 software.

[3] = Plasma stability in vitro; type: in vitro ADME, wistar rats; conditions: 10 μmol/L, 37 °C, up to 120 min
Experimental: Compounds 15p. 15p were weighed and dissolved in DMSO to prepare a master batch with a concentration of 1 mg/mL. The plasma was obtained from wistar male rats, and stored at −20 °C for pending use. The 10 μmol/L of the sample solution to be tested was vortexed and mixed, and rapidly incubated in a 37 °C water bath shaker. The 100 μL of the incubation system was removed at 0 min, 5 min, 10 min, 20 min, 40 min, 60 min, 90 min, and 120 min of the reaction, respectively. The remaining amount of compound was detected (note: each sample was operated three times in parallel). The concentrations of the samples to be measured (15p) in rat plasma were detected by HPLC-MS/MS, and the experimental data were processed and plotted using the computer programs Microsoft Excel (Microsoft 97–2003, Redmond, Washington, DC, USA) and Origin 8.5 (OriginLab, Northampton, MA, USA).

[4] = test system: colon cancer HT-29 cell line; experiment: MTT cytotoxicity assay, colon cancer HT-29 cell line; type: cell-based; conditions: Homo sapiens, 72 h, mean ± SD
Experimental: as §1

[5] = test system: microtubules in NCI-H460 cells; experiment: Immunofluorescence assay of microtubules (β-tubulin/DAPI staining); type: cell-based, human; conditions: 2 nM, 24 h
Experimental: To further explore the effect of phenylahistin derivatives 1 and 15p on microtubules in cancer cells, an immunofluorescence assay was performed. […] The inhibitory activities were consistent with the previously shown anti-proliferative activities.
NCI-H460 cells were seeded in 24-well plate (with coverslips plated) at the density of 5 × 10^4 cells. […] Then, cells were fixed with 4% cold paraformaldehyde at 4 °C for 15 min and then permeabilized in 0.05% Triton X-100 for 10 min. The cells were blocked in 1% BSA for 30 min. Microtubules were detected by incubation with a monoclonal anti-β-tubulin (β-tubulin antibody was obtained from Servicebio, Wuhan, China.) at 4 °C for 12 h. Subsequently, the cells were washed with PBS and incubated with a FITC-conjugated anti-mouse IgG antibody. Nuclei were stained with DAPI (G1012, Servicebio, Wuhan, China). The coverslips were visualized under fluorescence microscope (Nikon Eclipse C1, Nikon, Japan) and an image-forming system (Nikon DS-U3, Nikon, Tokyo, Japan).

Clearance by liver microsomes ([2]; NADPH): quickly cleared by liver microsomes
Total clearance (CL) at 1 μmol/L ([2]; Wistar, rat, rat liver microsomes, rat liver microsomes 0.5 mg/mL, 1 μmol/L): 80.6 mL/min/kg
CLint scaled at 1 μmol/L ([2]; Wistar, rat, rat liver microsomes, rat liver microsomes 0.5 mg/mL, 1 μmol/L, read-out: CLint (intrinsic clearance)): 772 mL/min/kg
half-life at 1 μmol/L ([2]; Wistar, rat liver microsomes 0.5 mg/mL, 1 μmol/L): 7.07 min
Plasma stability [3]: very stable
Structure (SMILES): C=CCn1cnc(/C=c2\[nH]c(=O)/c(=C/c3cccc(C(=O)c4ccc(F)cc4)c3)[nH]c2=O)c1C(C)C [15p]
IC50 [1]: 0.81 ± 0.02 nM
IC50 [4]: 0.67 ± 0.064 nM
Effect on microtubule networks [5]: microtubule networks were damaged
